Data as given in patent US12070509B2, “Nucleic acids and methods of treatment for cystic fibrosis” (Arcturus Therapeutics, Inc., priority 2020, dated 2024).

Target: T1, CFTR channels (Homo sapiens, UniProt P13569)
T1 construct: 1835; Cap1; TEV; Yes; XBG; 53; expressed in transfected cells; host or cells: FRT (Fischer rat thyroid) cells in air-liquid interface culture, transfected with unformulated hCFTR mRNA
Assay: Transepithelial conductance (Gt) in Air-Liquid Interface culture of transfected FRT cells
Format: cell-based
Settings: FRT cells transfected with constructs 2099.1 and 1835.1 (FIG. 12); sequential Forskolin, VX770, Inh-172
Procedure: Further studies were conducted to assess the activity of hCFTR proteins expressed by selected mRNA constructs and whether these can properly open and close to allow proper ion transport. In these studies, an Air-Liquid Interface (ALI) cell culture model of FRT cells was used to transfect an unformulated subset of codon-optimized hCFTR mRNAs at different doses ranging from 0.5 μg-2 μg of mRNA (the 2 μg dose is not shown) into the FRT cells. ALI is a method of cell culture by which polarized cells are generated with their basal surfaces in contact with media, and the top of the cellular layer is exposed to the air. This model helps to mimic the cellular structure of in vivo airways.
At 24 hours post-transfection, transepithelial conductance (Gt) of the cells over time was measured as an indicator of CFTR activity. Initially, Gt was measured with the transfected or control cells unperturbed. Then, a sequential process of CFTR activation (channel opening), enhancement (gating promotion) and closing of the CFTR channels was performed. The hCFTR constructs used in this study were 1835.1 (SEQ ID NO: 53), 2093.1 (SEQ ID NO: 66), 2095.1 (SEQ ID NO: 68), 2096.1 (SEQ ID NO: 69), and 2099.1 (SEQ ID NO: 72). In addition, controls were performed using a reference sequence of construct 764.1 (SEQ ID NO: 47) and untransfected cells. […]

T1 sequence (P13569 whole entry): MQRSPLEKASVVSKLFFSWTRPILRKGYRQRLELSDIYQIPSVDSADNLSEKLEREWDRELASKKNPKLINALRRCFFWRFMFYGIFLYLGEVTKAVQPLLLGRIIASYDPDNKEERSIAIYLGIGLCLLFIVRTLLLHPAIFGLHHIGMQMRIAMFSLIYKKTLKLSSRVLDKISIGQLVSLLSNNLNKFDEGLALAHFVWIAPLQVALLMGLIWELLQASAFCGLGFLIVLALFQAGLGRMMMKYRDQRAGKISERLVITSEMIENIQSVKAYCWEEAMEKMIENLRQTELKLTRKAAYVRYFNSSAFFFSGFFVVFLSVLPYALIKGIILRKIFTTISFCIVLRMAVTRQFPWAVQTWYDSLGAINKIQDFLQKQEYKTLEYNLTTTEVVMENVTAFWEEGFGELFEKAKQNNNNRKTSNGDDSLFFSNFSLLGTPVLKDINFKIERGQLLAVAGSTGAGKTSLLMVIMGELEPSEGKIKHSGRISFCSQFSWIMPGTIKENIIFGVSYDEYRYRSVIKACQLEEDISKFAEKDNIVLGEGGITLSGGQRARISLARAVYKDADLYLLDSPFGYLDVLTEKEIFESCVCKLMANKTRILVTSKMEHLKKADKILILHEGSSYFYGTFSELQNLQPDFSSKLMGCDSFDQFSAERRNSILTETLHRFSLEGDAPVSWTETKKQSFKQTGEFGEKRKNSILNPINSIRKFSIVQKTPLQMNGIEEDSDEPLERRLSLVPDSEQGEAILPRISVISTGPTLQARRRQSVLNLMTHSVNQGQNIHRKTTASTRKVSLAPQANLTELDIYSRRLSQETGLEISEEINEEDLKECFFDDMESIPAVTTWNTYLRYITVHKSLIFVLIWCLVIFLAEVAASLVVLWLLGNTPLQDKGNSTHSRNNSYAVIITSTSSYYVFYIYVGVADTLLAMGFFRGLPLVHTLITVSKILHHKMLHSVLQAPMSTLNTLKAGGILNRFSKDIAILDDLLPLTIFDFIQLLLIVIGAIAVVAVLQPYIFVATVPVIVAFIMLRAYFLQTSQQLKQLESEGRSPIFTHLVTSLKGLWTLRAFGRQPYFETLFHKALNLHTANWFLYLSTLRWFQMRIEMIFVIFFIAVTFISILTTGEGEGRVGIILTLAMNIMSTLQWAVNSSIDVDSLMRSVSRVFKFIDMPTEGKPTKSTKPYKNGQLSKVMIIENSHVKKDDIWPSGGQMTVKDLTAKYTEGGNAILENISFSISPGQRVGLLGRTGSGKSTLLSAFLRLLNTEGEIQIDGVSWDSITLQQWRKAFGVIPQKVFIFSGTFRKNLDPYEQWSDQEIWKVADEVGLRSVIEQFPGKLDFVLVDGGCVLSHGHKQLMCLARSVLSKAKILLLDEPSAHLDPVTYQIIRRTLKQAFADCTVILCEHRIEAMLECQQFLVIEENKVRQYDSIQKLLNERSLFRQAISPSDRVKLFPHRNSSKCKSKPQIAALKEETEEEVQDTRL

| Change in Gt on introduction of CFTR modulator | Compound |
| --- | --- |
| second increase in Gt | CC(C)(C)c1cc(C(C)(C)C)c(NC(=O)c2c[nH]c3ccccc3c2=O)cc1O [VX770, reference compound] |
| decline in Gt | O=C(O)c1ccc(C=C2SC(=S)N(c3cccc(C(F)(F)F)c3)C2=O)cc1 [Inh-172, reference compound] |
